Patent EP0227818B1, “ANTIGLAUCOMA COMPOSITIONS” (SCHERING CORPORATION, priority 1985, dated 1987)

Experiments:
[1] = Gross examination of cornea, iris, conjunctivae and pupil diameter for ocular irritation in the IOP study; type: in vivo, Male New Zealand white rabbits; conditions: rabbits, topical ocular dosing
Description: Prior to drug administration and at each IOP determination, the cornea, iris, and conjunctivae were grossly examined for signs of irritation. Pupil diameter was also examined but detailed measurements were not made.

[2] = test system: intraocular pressure (IOP); assay: Intraocular pressure (IOP) lowering in conscious normotensive rabbits after topical dosing, applanation tonometer; type: in vivo, Male New Zealand white rabbits; conditions: 0.5% Timolol alone (plus 50 µl vehicle 1), 50 µl topical to left eye, mean ± SEM; statistically significant vs placebo; concentration giving maximum IOP reduction with timolol alone
Description: Food and water were allowed ad libitum. The rabbits were maintained on a light cycle of 12 h darkness (7 PM to 7 AM) followed by 12 h of light. Animals were conditioned to their handlers and the laboratory setting and IOP measurements for at least one 4 h period before being used to study drug effects.
Rabbits were restrained in a cloth sack approximately 2 min prior to IOP determinations. The left lower eyelid was retracted forming a pouch and 1 drop of the local anesthetic proparacaine (0.05% w/v) was irrigated over the cornea. The eyelid was then held closed over the eye about 1 min. IOP was usually monitored 1 h before dosing, at zero time (immediately prior to dosing), and hourly for the next 4 h. Only rabbits with IOP's of 18-23 mmHg and showing no sign of ocular irritation were used in drug studies.
IOP, in mmHg, was determined in triplicate with a McKag-Marg applanation tonometer and the average reading was recorded. The tonometer had previously been calibrated against direct manometric determination of IOP in living eyes of barbiturate-anesthetized rabbits. Internal calibration signals of the McKay-Marg unit were checked after every eight readings or less. […]
The data (mean I SEM) were analyzed using analysis of variance and Dunnett's or Duncan's comparisons and are expressed as peak changes in IOP. […]

CC(C)(C)NC[C@H](O)COc1nsnc1N1CCOCC1 [Timolol, 1-[(1,1-dimethylethyl)amino]-3-[(4-morpholinyl-1,2,5-thiadiazol-3-yl)-oxy]-2-propanol]
signs of acute ocular irritation ([1]; all concentrations tested): None
Pupillary diameters ([1]; examined, detailed measurements not made): not affected
Peak Change in IOP [2]: -3.0±0.4^(1) mmHg
